This note sets out measurements from patent publication EP0168350B1, “Certain ring-fused pyrazolo [3,4-d]-pyridin-3-one derivatives” (CIBA-GEIGY AG, priority 1984, dated 1986).

Where a name gives a salt, the structure may show the parent alone.

The target of one assay is benzodiazepine receptor. In words: in vitro benzodiazepine receptor binding assay (displacement of tritiated flunitrazepam). The settings on record: concentration inhibiting specific binding of 0.5 nM tritiated flunitrazepam by 50 %; synaptosomal membranes from rat fore-brain, pH 7.5. The method, then: The benzodiazepine receptor binding properties indicate of the nervous system regulatory activity of said new compounds are determined in the receptor binding assay in vitro, e.g. similarly to that in Nature 266, 732 ( 977) or Proc. Nat. Acad. Sci. USA 74, 3805 (1977). When tritiated flunitrazepam is used, the interaction of other drugs with said receptor can be readily assessed thus; Synaptosnal membranes from rat fore-brain are incubated at 0-5 for 30 minutes with 0.5 nM tritiated flunitrazepam and various concentrations of the test substance in a buffer medium maintained at pH 7.5. Solutions of the various concentrations of test substance are prepared by dilution of a […] stock solution in dimethylacetamide-ethanol (1:10) with 50 mM pH 7.5 Tris-HCI buffer. The membranes, containing the receptors with various amounts of tritiated flunitrazepam, are filtered onto glass fiber filters, which are then analyzed in a liquid scintillation counter. The concentration of the compounds of this invention, required to inhibit the specific binding of 0.5 nM of tritiated flunitrazepam by 50 %, the ICso, is determined graphically.

Another assay relates to male Wistar rats. In words: Cook-Davidson conflict procedure for antianxiety effects. Format: in vivo, rat. To be noted: dose of about 10 mg/kg p.o. The source says:
Anxiolytic effects are observed, for example, according to the Cook-Davidson conflict procedure, using male Wistar rats which are maintained at 80 % of normal body weight by dietary-, but not water-restriction. They are trained to press a lever within a conditioning chamber, also containing a liquid dipper, a house light, a speaker and a grid-floor. Both lever and grid are connected to an electrical shock source and the chamber is situated in a sound-attenuated room in which a white noise-source is activated during testing, in order to mask any extraneous auditory cues. Each session of 47 minutes duration consists of two alternating schedules. The first is a Variable Interval (VI) schedule of 30 seconds, lasting for 5 minutes, during which a sweetened, condensed milk reinforcement is delivered following the first lever-press after an average of 30 seconds have elapsed, and a drug-induced decrement of this performance is taken as an indication of a neurological deficit. Immediately following the VI-schedule both a 1000 Hz tone and a light-cue are activated, indicating the commencement of the second Fixed Ration (FR) schedule, lasting for 2 minutes, wherein the milk reinforcement is delivered concomitant with an electric foot shock immediately following the tenth response, thereby establishing a conflict situation. The intensity of said shock ranges between 2.0 and 3.6 mA, varying with each animal, in order to adjust them to about 25-100 responses during this schedule over the entire session. A drug-induced enhancement of performance during the FR-schedule is taken as indication of antianxiety effects. This increased performance is measured by the increased number of electric shocks taken during six FR sessions lasting 2 minutes each.

With `O=c1c2c[nH]c3c(c-2nn1-c1ccc(Cl)cc1)COCC3` [Example 4a, 2-p-chlorophenyl-2,3,5,6,7,9-hexahydropyrano[4,3-b]pyrazolo[3,4-d]pyridin-3-one], the concentration for half-maximal inhibition (IC50) at benzodiazepine receptor is roughly 0.9 nM. Besides, the “active in the Cook-Davidson test for antianxiety effects” value with male Wistar rats was “active”.
Molecule `O=c1c2c[nH]c3c(c-2nn1-c1ccccc1)CCC3` [Example 7b, 2-phenyl-2,3,5,6,7,8-hexahydrocyclopenta[b]pyrazolo[3,4-d]pyridin-3-one] displayed an IC50 at benzodiazepine receptor of roughly 1.5 nM.
On the same count and under the same terms, with `COc1ccc(-n2nc3c4c([nH]cc-3c2=O)CCCC4)cc1` [Example 12c, 2-(4-methoxyphenyl)-2,3,6,7,8,9-hexahydropyrazolo[4,3-c]quinolin-3(5H)-one] the figure was roughly 0.6 nM.
Same read-out and setting: with `O=C(Nc1ccccn1)c1cnc2c(c1O)CSCC2` [5H-7,8-dihydro-4-hydroxy-3-(N-2-pyridylcarbamoyl)thiopyrano[4,3-b]pyridine] the figure was roughly 8 nM.
At benzodiazepine receptor, `Cl.O=c1c2c[nH]c3c(c-2nn1-c1ccc(Cl)cc1)CCCC3` [Example 8a, 2-p-chlorophenyl-2,3,6,7,8,9-hexahydropyrazolo[4,3-c]quinolin-3(5H)-one hydrochloride] displayed a concentration for half-maximal inhibition (IC50) of roughly 3.5 nM. Also, in the assay on male Wistar rats, the “active in the Cook-Davidson test for antianxiety effects” value is on record as “active”.
The corresponding values for `O=c1c2c[nH]c3c(c-2nn1-c1ccc(Cl)cc1)CCCCC3` [Example 9a, 2-p-chlorophenyl-2,3,5,6,7,8,9,10-ocathydrocyclohepta[b]pyrazolo[3,4-d]pyridin-3-one hydrochloride] are roughly 0.8 nM and “active”.
In the same order, the values of `CC1CCc2[nH]cc3c(=O)n(-c4ccc(Cl)cc4)nc-3c2C1.Cl` (stereo not shown) [Example 8e, 2-p-chlorophenyl-2,3,6,7,8,9-hexahydro-8-methylpyrazolo[4,3-c]-quinolin-3(5H)-one hydrochloride] are roughly 1 nM and “active”.
`O=c1c2c[nH]c3c(c-2nn1-c1ccc(Cl)cc1)CSCC3` [Example 3a, 2-p-chlorophenyl-2,3,5,6,7,9-hexahydrothiopyrano[4,3-b]pyrazolo[3,4-d]pyridine-3-one] showed an IC50 at benzodiazepine receptor of roughly 0.35 nM.
The same measure, in the same setting: with `O=c1c2c[nH]c3c(c-2nn1-c1ccc(Cl)cc1)CCC3` [Example 7a, 2-p-chlorophenyl-2,3,5,6,7,8-hexahydrocyclopenta[b]pyrazolo[3,4-d]pyridin-3-one] the figure was roughly 0.5 nM.
